This note sets out measurements from patent US20200113923A1, “DOT1L INHIBITORS FOR USE IN THE TREATMENT OF LEUKEMIA” (Epizyme, Inc., priority 2012, published 2020).

Holding throughout (assay type): cell-based, Human
Test [1] deals with EOL-1 cells. The test can be described thus: EOL-1 cell growth and viability assay (Guava Viacount, 11 days). As for the experimental part:
Human leukemia cell line EOL-1 (Catalog # ACC-386) was purchased from DSMZ and were grown in Roswell Park Memorial Institute medium (RPMI) with 10% Fetal Bovine Serum (FBS). Cells were kept in log growth as outlined in the technical data sheet provided by the vendor.
Exponentially growing EOL-1 cells were plated in 96-well plates at a density of 3×10^4 viable cells/well. Each treatment was seeded in triplicate with a final well volume of 150 μLs. Cells were incubated with increasing concentrations of DOT1L inhibitor up to 50 μM. Viable cell number was determined every 3-4 days for 11 days using the Guava Viacount assay (Millipore #4000-0040) and analyzed on a Guava EasyCyte Plus instrument according to the manufacturer's protocol. On the days of cell counts, growth media and inhibitor were replenished and cells maintained in log phase culture by reseeding at a density of 5×10^4 viable cells/well. Total cell number was expressed as split-adjusted viable cells per well. For each cell inhibitor IC50 values were determined from concentration-dependence curves at day 11. […]
The effect of DOT1L inhibitors on leukemia cell growth and viability was investigated. […] The number of viable cells was determined every 3-4 days for 11 days. […] Total cell number was expressed as split-adjusted viable cells per well. […]

Test [2] relates to H3K79me2. The test is described as follows: H3K79me2 immunoblot in EOL-1 cells. As for the experimental part: Nuclei were collected by centrifugation at […] for 5 minutes at 4° C. and washed once in Tris/EDTA buffer (pH 7.4). Supernatant was removed and histones extracted for one hour with 60 μl 0.4 N cold sulfuric acid. Extracts were clarified by centrifugation at 10,000 g for 10 minutes at 4° C. and transferred to a fresh microcentrifuge tube containing 600 μl ice cold acetone. Histones were precipitated at −20° C. for 2 hours, pelleted by centrifugation at 10,000 g for 10 minutes and resuspended in 60 μl distilled water (DI water). Total protein of the acid extracts was assessed using a bicinchoninic acid (BCA) protein quantification assay with a bovine serum albumin (BSA) standard (Pierce Biotechnology).
For immunoblot analysis of the H3K79me2 inhibition by DOT1L inhibitor, exponentially growing EOL-1 cells were seeded at 2×10^5 cells/mL and incubated in the presence of increasing concentrations of DOT1L inhibitor for 4 days. […] Signal intensities specific for each methyl-specific antibody was quantified using Odyssey software and normalized to that of the appropriate total histone control signal on the same filter by dividing the methyl-specific antibody signal intensity by the total histone control signal intensity.
Inhibition of methylation of H3K79 was assessed after 4 days of treatment of DOT1L compounds in exponentially growing EOL-1 cells. […]
Background: In western blotting, separated proteins are transferred to a membrane and probed.

The subject of test [3] is HOXA9. The test can be described thus: Quantitative real-time PCR, HOXA9 expression after DOT1L inhibitor treatment. To be noted: up to 10 μM for 6 days, qPCR. On the procedure: (§1) Exponentially growing EOL-1 cells were plated in a 12 well plate at 2×10^5 cells/mL. […] On day 4, cells were maintained in log phase culture by reseeding at 5×10^5 cells/mL and compound was replenished. At day 6 cells were washed twice with PBS and pelleted by centrifugation at 200×g. Cell pellets were lysed in 300 μL RLT buffer (Qiagen) and total RNA was isolated using the RNeasy total RNA isolation kit (Qiagen 74106). Total RNA (1 μg) was reverse transcribed using a high capacity cDNA reverse transcription kit (Applied Biosystems 4368813). RNA isolation and cDNA synthesis were carried out according to the manufacturer's protocol. Predesigned labeled primer and probe sets for HOXA9 (Hs00365956), MEIS1 (Hs00180020) and FLT3 (Hs00975659) were purchased from Applied Biosystems. Quantitative real-time PCR (qPCR) reactions contained 50 ng cDNA, 1× labeled primer and probe set, and 1× Taqman universal PCR master mix (Applied Biosystems 4304437). Samples were run on a 7900 HT Fast Real Time PCR machine (Applied Biosystems 4351405) with cycling conditions of 2 min 50° C., 10 min 95° C., 40 cycles at 15 sec 95° C. and 1 min 60° C. […] Percent of DMSO control was calculated with the equation (2^−ΔΔCT)*100 where the ΔΔCT is the difference between normalized target gene and DMSO control (ΔCT sample−ΔCT control=ΔΔCT). […]
(In general: Quantitative PCR measures a nucleic acid by following its amplification.)

Test [4] deals with FLT3. The test can be described thus: Quantitative real-time PCR, FLT3 expression after DOT1L inhibitor treatment. The following applies: up to 10 μM for 6 days, qPCR. On the procedure: as §1
Test [5] deals with MEIS1. The test is described as follows: Quantitative real-time PCR, MEIS1 expression after DOT1L inhibitor treatment. To be noted: up to 10 μM for 6 days, qPCR. As for the experimental part: (§2) Exponentially growing EOL-1 cells were plated in a 12 well plate at 2×10^5 cells/mL. […] On day 4, cells were maintained in log phase culture by reseeding at 5×10^5 cells/mL and compound was replenished. At day 6 cells were washed twice with PBS and pelleted by centrifugation at 200×g. Cell pellets were lysed in 300 μL RLT buffer (Qiagen) and total RNA was isolated using the RNeasy total RNA isolation kit (Qiagen 74106). Total RNA (1 μg) was reverse transcribed using a high capacity cDNA reverse transcription kit (Applied Biosystems 4368813). RNA isolation and cDNA synthesis were carried out according to the manufacturer's protocol. Predesigned labeled primer and probe sets for HOXA9 (Hs00365956), MEIS1 (Hs00180020) and FLT3 (Hs00975659) were purchased from Applied Biosystems. Quantitative real-time PCR (qPCR) reactions contained 50 ng cDNA, 1× labeled primer and probe set, and 1× Taqman universal PCR master mix (Applied Biosystems 4304437). Samples were run on a 7900 HT Fast Real Time PCR machine (Applied Biosystems 4351405) with cycling conditions of 2 min 50° C., 10 min 95° C., 40 cycles at 15 sec 95° C. and 1 min 60° C. […] Percent of DMSO control was calculated with the equation (2^−ΔΔCT)*100 where the ΔΔCT is the difference between normalized target gene and DMSO control (ΔCT sample−ΔCT control=ΔΔCT).

Test [6] relates to DOT1L. The test can be described thus: Quantitative real-time PCR, DOT1L expression after DOT1L inhibitor treatment. The following applies: up to 10 μM for 6 days, qPCR. On the procedure:
as §2

pIC50: −log10 of the molar value.

As a reminder, the pIC50 is the IC50 on a negative log10 scale, so that one unit is a factor of ten. For `CC(C)N(C[C@H]1O[C@@H](n2cnc3c(N)ncnc32)[C@H](O)[C@@H]1O)[C@H]1C[C@@H](CCc2nc3cc(C(C)(C)C)ccc3[nH]2)C1` [Compound A2, (2R,3R,4S,5R)-2-(6-amino-9H-purin-9-yl)-5-((((1r,3S)-3-(2-(5-(tert-butyl)-1H-benzo[d]imidazol-2-yl)ethyl)cyclobu-tyl)(isopropyl)a-mino)methyl)tet-rahydrofuran-3,4-diol], the “cell growth of EOL-1 cells” value in test [1] (0.003 μM-50 μM, 11 days, MLL PTD cell line) is listed as “significantly inhibited”. Further, the pIC50 in test [1] (Homo sapiens, EOL1, 264 h, concentration-dependence curves at day 11) is 8.70; in test [2] (Homo sapiens, EOL1, 96 h, 4 days of treatment, read-out: IC50, inhibition of methylation of H3K79 (H3K79me2)), 7.57. In addition, in test [2] (4 days, 0.009 to 10 μM), the “inhibition of methyltransferase activity of DOT1L (H3K79me2 western blot)” value was “dose-dependent inhibition”. Moreover, in test [3], the HOXA9 expression entry is “reduced in a dose-dependent manner”. The FLT3 expression result in test [4] is “reduced in a dose-dependent manner”.
Consider `CC(C)N(CCCNC(=O)Nc1ccc(C(C)(C)C)cc1)CC1O[C@@H](n2ccc3c(N)ncnc32)[C@H](O)[C@@H]1O` (stereo partly shown) [Compound T], for which the HOXA9 expression entry in test [3] was “reduced in a dosage-dependent manner”. In test [4], the FLT3 expression entry is on record as “reduced in a dosage-dependent manner”. In addition, the MEIS1 expression entry in test [5] is given as “reduced in a dosage-dependent manner”. In addition, the DOT1L gene expression result in test [6] was “not reduced”.
